Measurements from patent publication US20250381118A1, “SKIN TREATMENT METHODS” (Amazentis SA, priority 2017, published 2025).
Each block holds one molecule with its values, some of them ahead of it.

Key:
[1] = tested on: MelanoDerm™ tissues (MEL-300-B); experiment: MelanoDerm quantification of melanin content; format: cell-based, human; conditions: 14 days; for Melanin content versus Kojic acid at 2%: 100 μM, Student t test
Method: (§1) The MelanoDerm™ cultures from MatTek Corporation (Ashland, Massachusetts, USA) are a pigmented 3D-Living Skin Equivalent model. MEL-300 tissues are obtained by seeding keratinocytes with melanocytes. MEL-300-B cultures contain melanocytes derived from a donor tissue and are used for the evaluation of skin lightening potential. MEL-300-B were prepared in a long life maintenance medium (EPI-100-LLMM available from the MatTek Corporation) and cultured for a total of 14 days. A total of four tissue replicates (n=4) was used per group.
(§2) Untreated tissue was used as negative control. Maintenance medium was refreshed every 2 days.
(§3) Urolithin A was applied to the samples by addition to the maintenance medium at a final concentration of 50 and 100 µM, prepared from a stock solution at 50 mM in DMSO. A vehicle control was prepared using DMSO at 0.2% in maintenance medium. Maintenance medium added in Urolithin A or DMSO was refreshed every 2 days. Kojic acid was used as a positive control at 2% in 50:50 butylene glycol: water and applied topically (i.e. on the stratum corneum, the outermost layer of the epidermis, of the MelanoDerm™ sample). Kojic acid is a well-known inhibitor of tyrosinase, a key enzyme that is responsible for melanogenesis in melanoma and melanocytes, and is used to treat hyperpigmentation, melasma, and wrinkle in cosmetics products. Every 2 days, tissues were rinsed with sterile PBS to remove Kojic acid prior to adding a fresh preparation of kojic acid at 2% in 50:50 butylene glycol: water. Maintenance medium was changed at the same time. • a. At day 14, all tissues were photographed by top view for macroscopic analysis of pigmentation using a Nikon Eclipse Ti microscope. […] It is also visible that tissues treated with Urolithin A at 50 and 100 μM are as light as the tissues treated with the positive control Kojic acid applied topically at 2%. • b. The lightness of the samples was assessed by measuring the L value using the Konica Minolta Color Spectrophotometer (CM-700d) at day 0, 4, 7, 11 and 14. The L value tells how light or dark the color is, with black corresponding to L=0 and white to L=100. FIG. 3 represents the L values measured in the difference samples. […] At the end of the treatment, the L-values of tissues treated with Urolithin A and Kojic acid are equivalent, confirming what is visible in FIG. 2. […] Three tissues per group were used for the quantification of melanin. Tissues were first incubated in PBS to remove any phenol red remaining from the maintenance medium. Tissues were placed in a 1.7 ml microfuge tube with 500 μl of Solvable™ (Tissue and Gel Solubilizer 0.5 M-Packard BioScience Co. Catalogue No. 6NE9100) and incubated at 95° C. overnight along with melanin standards. Melanin standards were prepared by dissolving melanin (Sigma catalog number M8631) in Solvable™ at 1 mg/ml to make stock solution.
Following overnight incubation, samples were centrifuged at 13000 rpm for 5 minutes to pellet any insoluble material. 200 μl of each sample were transferred to a 96-well plate and read at 490 nm. FIG. 4 represents the results for the melanin content expressed in μg. Statistical significance was performed using a one-way ANOVA, followed by a Dunnett post-hoc test for multiple comparison of each group against the negative control.

rodents = conditions: cited from earlier work
[2] = tested on: MelanoDerm™ tissues (MEL-300-B); experiment: MelanoDerm lightness, L value by color spectrophotometer; format: cell-based, human; conditions: for L value versus negative control group: from day 4 until day 14
Method: as §1, §2, §3

[3] = Particle size distribution after micronisation (Malvern Mastersizer 2000); format: physicochemical; conditions: micronized, spiral jet mill
Excerpt: Urolithin A was micronized using an MC50 Spiral 20 Jetmill (Valortecs SAS, Blodelsheim, France), using filtered nitrogen, with a feed rate of 240 g/hr, a Venturi pressure of 12 bar, and a mill pressure of 12 bar. Urolithin A was micronized to give urolithin A having a particle size distribution of D90=9 μm to 15 μm and D50=2 to 9 μm. The actual particle size distribution was D90=11.5 μm, D50=3.9 μm, D10=0.7 μm, measured using a Malvern Mastersizer 2000.

[4] = tested on: EpiDerm™ tissues (EPI-200, normal human-derived epidermal keratinocytes); experiment: EpiDerm skin cell viability (MTT) assay; format: cell-based; conditions: 96 hours; for Relative cell viability (% of negative control): basolateral, 90% = irritant threshold
Method: Pre-screen treatment conditions: A good skin lightener should inhibit melanin synthesis but not cause cytotoxicity to the tissue. The impact of Urolithin A on skin cells viability was performed with the EpiDerm tissue (EPI-200). The reconstructed human epidermal model EpiDerm™ (EPI-200, MatTek, Ashland, USA) consists of normal human-derived epidermal keratinocytes, which have been cultured to form a multilayered highly differentiated model of the human epidermis.
Tissues were grown in maintenance medium (EPI-100-LLMM available from the MatTek Corporation). Treatment was done basolaterally, i.e. with the test compounds dissolved in the maintenance medium, for a total duration of 96 hours. Two EpiDerm™ tissues (n=2) were used per condition, which were 1) water, 2) DMSO 0.5%, 3) Urolithin A 25 μM, 4) Urolithin A 50 μM and 5) Urolithin A 100 μM. Maintenance medium added or not in Urolithin A or DMSO was refreshed at 48 hours.
Cell viability is measured by dehydrogenase conversion of MTT [(3-4,5-dimethylthiazole-2-yl) 2,5-diphenyltetrazoliumbromide], present in cell mitochondria, into a blue formazan salt that is quantitatively measured after extraction from tissues. The MTT assay was performed by transferring the tissues to 24-well plates containing MTT medium (1 mg/ml). After a 3 hr MTT incubation, the blue formazan salt formed by cellular mitochondria was extracted with 2.0 ml/tissue of isopropanol (extractant solution, part #MTT-100-EXT) and the optical density of the extracted formazan was determined using a spectrophotometer at 570 nm. Relative cell viability was calculated for each tissue as % of the mean of the negative control tissues.

[5] = tested on: MelanoDerm™ tissues (MEL-300-B); experiment: MelanoDerm macroscopic analysis of pigmentation (top view); format: cell-based, human; conditions: day 14
Method: as §1, §2
as §3, with “Melanin standards were prepared by dissolving melanin (Sigma catalog number M8631) in Solvable™ at 1 mg/ml to make stock solution.” left out

[6] = Solubility (water; topical cream); format: physicochemical; conditions: topical cream including lipophilic excipients, e.g. an oil and/or a medium chain triglyceride

SMILES: O=c1cc(CO)occ1O [Kojic acid, reference compound]
- Decrease of melanin content compared to the negative control ([1]; 2% in 50:50 butylene glycol:water, applied topically): 62%

- Particle size D10 [3]: 0.7 μm
- Particle size D50 [3]: 3.9 μm
- Particle size D90 [3]: 11.5 μm
- Solubility in topical cream composition [6]: especially soluble
SMILES: O=c1oc2cc(O)ccc2c2ccc(O)cc12 [Urolithin A]
- Mitophagy (rodents; in vivo): induces mitophagy
- Lifespan (rodents; rodents): increases lifespan
- Speed of tissue-lightening effect versus Kojic acid ([2]; 50 μM): faster tissue-lightening effects
- L value versus negative control group ([2]; 50 μM): significantly higher
- Speed of tissue-/skin-lightening effect versus Kojic acid ([2]; 100 μM): faster tissue-lightening effects
- L value versus negative control group ([2]; 100 μM): significantly higher
- Speed of tissue-/skin-lightening effect versus Kojic acid ([2]; 100 μM, listed as urolithin A): faster skin-lightening effects
- L value versus tissues treated with Kojic acid ([2]; Urolithin A 50 or 100 μM, day 4 and 7): higher L value
- L value versus tissues treated with Kojic acid ([2]; end of the treatment (day 14)): equivalent
- Decrease of melanin content compared to the negative control ([1]; 50 μM in maintenance medium): 65%
- Decrease of melanin content compared to the negative control ([1]; 100 μM in maintenance medium): 67%
- Melanin content versus Kojic acid at 2% [1]: significantly lower
- Melanin content versus Kojic acid at 2% ([1]; listed as urolithin A): greater decrease in melanin content
- Relative cell viability (% of negative control) ([4]; Urolithin A 25 μM): higher than 90%
- Relative cell viability (% of negative control) ([4]; Urolithin A 50 μM): higher than 90%
- Relative cell viability (% of negative control) ([4]; Urolithin A 100 μM): higher than 90%
- Effect on skin cell viability / cytotoxicity ([4]; at the tested concentrations (25, 50, 100 μM)): does not impair skin cell viability
- Macroscopic pigmentation versus negative control and DMSO 0.2% group ([5]; 50 μM in maintenance medium): consistently lighter
- Macroscopic pigmentation versus positive control Kojic acid 2% topical ([5]; 50 μM in maintenance medium): as light as
- Macroscopic pigmentation versus negative control and DMSO 0.2% group ([5]; 100 μM in maintenance medium): consistently lighter
- Macroscopic pigmentation versus positive control Kojic acid 2% topical ([5]; 100 μM in maintenance medium): as light as
